Experimental data from US10183039B2, “Methods for the production of collagen IV” (Vanderbilt University, priority 2013, dated 2019).

Molecular target: T1, peroxidasin (Mus musculus, UniProt Q3UQ28)
T1 construct: Cultured murine PFHR9 cells synthesize collagen IV networks that contain sulfilimine crosslinks due to the activity of PXDN; endogenous in cells; host or cells: PFHR-9 cells (isolated matrix from KI-treated culture)
T1 sequence (Q3UQ28 24-1475): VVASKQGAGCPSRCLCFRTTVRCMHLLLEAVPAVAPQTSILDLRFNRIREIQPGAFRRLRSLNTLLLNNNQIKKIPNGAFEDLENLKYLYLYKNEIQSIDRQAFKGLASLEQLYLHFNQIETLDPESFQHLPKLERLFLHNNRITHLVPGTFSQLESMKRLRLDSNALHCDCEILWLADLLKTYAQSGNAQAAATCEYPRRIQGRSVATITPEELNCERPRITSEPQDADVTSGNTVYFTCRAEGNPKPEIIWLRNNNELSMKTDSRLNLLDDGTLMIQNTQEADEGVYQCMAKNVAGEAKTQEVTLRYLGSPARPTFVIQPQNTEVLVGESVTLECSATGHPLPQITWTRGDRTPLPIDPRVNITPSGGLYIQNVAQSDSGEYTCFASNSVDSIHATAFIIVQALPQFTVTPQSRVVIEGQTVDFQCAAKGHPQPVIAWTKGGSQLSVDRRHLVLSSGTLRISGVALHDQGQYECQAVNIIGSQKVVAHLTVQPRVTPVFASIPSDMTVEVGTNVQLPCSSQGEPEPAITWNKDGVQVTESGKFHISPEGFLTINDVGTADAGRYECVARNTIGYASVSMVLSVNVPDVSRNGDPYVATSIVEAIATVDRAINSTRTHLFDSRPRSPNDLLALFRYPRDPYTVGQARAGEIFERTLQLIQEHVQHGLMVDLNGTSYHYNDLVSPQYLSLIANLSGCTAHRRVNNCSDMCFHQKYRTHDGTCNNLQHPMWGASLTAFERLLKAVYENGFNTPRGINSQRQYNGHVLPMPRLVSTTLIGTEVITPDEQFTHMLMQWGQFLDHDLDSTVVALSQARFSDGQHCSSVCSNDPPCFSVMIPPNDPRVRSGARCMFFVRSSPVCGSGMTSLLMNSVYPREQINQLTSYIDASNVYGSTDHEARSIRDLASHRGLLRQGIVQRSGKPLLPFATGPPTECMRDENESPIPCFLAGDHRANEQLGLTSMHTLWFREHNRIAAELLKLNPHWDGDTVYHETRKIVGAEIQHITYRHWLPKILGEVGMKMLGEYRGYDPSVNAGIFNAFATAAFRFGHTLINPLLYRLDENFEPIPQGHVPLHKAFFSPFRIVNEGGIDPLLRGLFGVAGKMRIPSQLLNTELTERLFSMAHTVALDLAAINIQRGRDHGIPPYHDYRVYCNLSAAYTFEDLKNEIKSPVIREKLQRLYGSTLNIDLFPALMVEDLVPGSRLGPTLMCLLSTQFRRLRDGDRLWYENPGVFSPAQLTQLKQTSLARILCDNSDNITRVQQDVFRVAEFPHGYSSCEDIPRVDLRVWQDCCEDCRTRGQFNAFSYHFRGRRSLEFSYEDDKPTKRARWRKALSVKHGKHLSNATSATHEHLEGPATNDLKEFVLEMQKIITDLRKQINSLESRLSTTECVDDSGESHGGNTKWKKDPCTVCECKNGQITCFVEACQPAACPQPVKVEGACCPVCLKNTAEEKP
Assay: In vitro basement membrane (uncrosslinked PFHR-9 matrix) reaction with halides and H2O2
Type: biochemical
Experimental: (FIG. 8A) Matrix pellets isolated from KI-treated PFHR9 cell culture were extensively washed into 10 mM phosphate buffer (pH 7.4) supplemented with 100 mM KF to maintain ionic strength. Potassium salts of Cl— or Br— were added in indicated amounts. 1 hr reactions at 37° C. were initiated by addition of H2O2 to 1 mM and stopped by freezing at −20° C. Coomassie blue-stained gels after collagenase digestion of the samples and SDS-PAGE (FIG. 8B) Schematic of Br-Free chloride salt purification apparatus and setup. […] Reagent KCl was commercially obtained and unaltered prior to analysis. 100 mM solutions were made with 18MΩ deionized water. (FIG. 8C) Coomassie blue stained gel of collagenase digested PFHR-9 matrix reaction assay. Reaction buffered contained 10 mM phosphate buffer (pH 7.4), 100 mM Br-Free or Commercially obtained reagent grade KCl, as well as 1 mM H2O2 and 200 μM PHG where appropriate. (FIG. 8D) SDS-PAGE and coomassie blue stain of hPXDN (27.25 nM) and NC1 domain (1.3 μM) reaction and subsequent densiometric quantitation of S═N bond formation stiochiometry in response to NaBr addition. hPXDN and PFHR-9 NC1 domain were prepared and purified as described (5), except with all buffers for all purification steps (dialysis, chromatography, gradient ultracentrifugation) made with Br-Free chloride salts. Reactions were run for 10 minutes at 37° C. with 10 μM H2O2 as the terminal oxidant. Dose-response curve run in the presence of 1× Br-Free PBS. Reactions were quenched with 0.2 mg/ml Catalase, 20 mM Methionine, and 1 mM PHG. EC50 value±95% C.I. from two independent experiments with each data point plotted and fit.
Uncrosslinked PFHR9 matrix was extensively washed into 10 mM phosphate buffer (pH 7.4) that was supplemented with 100 mM KF to maintain ionic strength. One hour reactions at 37° C. were initiated by addition of H2O2 to 1 mM and stopped by freezing at −20° C. […] Samples were digested with collagenase at 37° C. overnight and visualized by SDS-PAGE using 12% gels under non-reducing conditions with Coomassie staining.
PFHR-9 cells treated with potassium iodide (1-10 mM) to eliminate NC1 hexamer crosslinks were used for basement membrane isolation. To test halide dependency, the inventors established halide-free conditions by washing extensively (at least five times) with 10 mM sodium phosphate pH 7.4. To try to extract or inactivate endogenous basement membrane peroxidase activity, the inventors extracted the matrix preparation twice with 2M guanidine-Cl, 50 mM Tris-Cl pH 7.5 and 10 mM EDTA-Na pH 8 followed by extensive washing with 1×PBS. Basement membrane was resuspended in the desired buffer with or without cofactors and inhibitors to examine in vitro NC1 crosslinking under various conditions. Basement membranes were collagenase solubilized to delineate collagen IV NC1 sulfilimine crosslink formation with SDS-PAGE and Coomassie blue staining membrane was isolated, washed extensively and resuspended in 1×PBS. Azide (0-10 mM) and 1 mM H2O2 were added and allowed to react for 1 h at 37° C. The matrix was pelleted, washed extensively with 1×PBS and solubilized with 1×PBS plus 2% (w/v) SDS. Solubilized proteins were reacted with 100 μM Tris[(1-benzyl-1H-1,2,3-triazol-4-yl)methyl]amine (Anaspec), 1 mM Tris(2-carboxyethyl)phosphine hydrochloride (ThermoFisher Pierce), 1 mM cupric sulfate and 100 μM biotin alkyne (PEG4 carboxamide-propargyl biotin; Life Technologies) for 1 h at 37° C. Click chemistry reactions were quenched with 1 mM 3′-azido-3′-deoxythymidine (Sigma). For avidin-HRP detection, samples were electrophoresed under reducing conditions, transferred to nitrocellulose membranes and probed with streptavidin-HRP according to manufacturer instructions (ThermoFisher Pierce). To isolate biotinylated proteins, the inventors precipitated click reaction products with two volumes of cold acetone to remove reactants, washed them with 70% (v/v) acetone and then resolubilized them in 1×PBS plus 2% SDS.

In the case of `Br` [bromide], the “crosslink formation on bromide addition to Br-free chloride” value is reported as “restored”, the “halide concentration at which crosslinked dimeric subunits formed” value is reported as roughly 100 mM and the “halide concentration permitting enzymatic crosslinking within purified matrix” value is reported as 10 µM. For the same molecule, the “S═N bond formation in isolated matrix” value (pH 7.4) was “robustly catalyzed bond formation at 10 μM”.
